Results on one molecule are retold here after US8703964B2, “Bendamustine cyclopolysaccharide compositions” (Supratek Pharma Inc., priority 2009, dated 2014).

Data set [1] is described as follows: Pharmacokinetics of bendamustine dosed to rats, composition with SBECD and LMWP (Example 25). In kind it is in vivo, Female Sprague-Dawley rats. The note with it: i.v. 10 mg/kg. Here is the method: Control: 5 mg/mL bendamustine hydrochloride, 10.2 mg/mL of mannitol in 0.9% NaCl; dose of 10 mg/kg
5 mg/mL bendamustine hydrochloride, 20% w/w sodium sulfobutyl ether β-cyclodextrin, 10.2 mg/g mannitol in water; dose of 10 mg/kg.
5 mg/mL bendamustine hydrochloride, 20% w/w sodium sulfobutyl ether β-cyclodextrin, 1% LMWP, 10.2 mg/g mannitol in water; dose of 10 mg/kg.
Female Sprague-Dawley rats (250-350 g). The animals were kept three per cage with an air filter cover under light (12 h light/dark cycle, light on at 06 h00) and controlled temperature 22° C.+/−1° C. All manipulations with the animals were performed under a sterilized laminar hood. The animals had ad libitum access to Purina mouse chow and water. The animals were fasted overnight and anesthetized, before dosing. Dosing and Sampling: The bendamustine compositions and control were administered intravenously to rats via a tail vein. Blood samples were collected 5, 15, 30, 45 min, 1, 1.5, 2, 3 and 4 hrs post-injection. The rats were anesthetized by general inhalation of isoflurane. The blood samples were collected from the jugular vein with a heparinized tube and kept on ice. The sample was immediately centrifuged, and the plasma separated. The plasma samples were immediately extracted. Sample Extraction and Analysis: The plasma samples 0.100 mL were transferred to plastic tubes. The samples were extracted with 0.400 mL of 100 mM HCl in acetonitrile while being shaken vigorously for 30 seconds. The samples were centrifuged at 10000 RPM for 5 minutes. The supernatant was separated. The samples were frozen in dry ice and kept at −80° C. until HPLC analysis. The aliquots of 20 microliters were injected into HPLC for analysis. The HPLC Conditions: C18 reversed phase column 50×4.6 mm, Symmetry/Shield 3.5 micrometer Column temperature 30° C. Flow rate 1.5 mL/min Injection volume 20 microliters Fluorescence detection at wavelengths: excitation 327 nm, emission 420 nm Mobile phase: Buffer A: 5% acetonitrile 0.1% TFA Buffer B: 90% acetonitrile 0.1% TFA Run time: 10 min The pharmacokinetic profiles of Bendamustine for tested composition versus the control is shown in Table 9 below.

Data set [2] concerns Human breast carcinoma MDA-MB 231 s.c. solid tumors. The data set can be described thus: Human breast carcinoma MDA-MB 231 s.c. solid tumors in nude mice (Example 28). The note with it: for Tumor weight after treatment, Average (SEM): 30 mg/kg days 1, 2, 9, 10. In kind it is in vivo, balb/c nu/nu mice. Here is the method:
balb/c mice aged 5 to 6 weeks were purchased from Charles River Canada Inc. The animals were kept 5 per cage with an air filter cover under light (12 light/dark cycle, light on at 6 H00) and temperature (22° C.±1° C.)-controlled environment. All manipulations of animals were performed under a sterilized laminar hood. The animals had ad libitum access to Purina mouse chow (Pro Lab PMH 4018, Trademark of Agway, Syracuse, N.Y.) and water. These animal studies were conducted according to the “Guidelines for Care and Use of Experimental Animals”. Tumor Cell Culture: Human breast cancer cells MDA-MB 231 were cultured in the appropriated culture medium. The cells were harvested in their logarithmic growth phase for the preparation of tumor implantation. Tumor Implantation: Human tumor or myeloma cells (2.5 to 5.0×10^6 cells) were implanted subcutaneously in 0.200 mL of medium containing 30% Matrigel on the two flanks of balb/c nu/nu mice through a 1 to 2 cm long 20-gauge needle. Treatments: 2 to 3 weeks after tumor cell implantation, animals that developed s.c. solid tumors were selected and divided into several homogeneous groups (n=5 animals per group or dose) with respect to tumor size (0.5 to 0.8 cm in diameter). The treatments were performed next day. The animals were dosed with the following dosing solutions. Control: (0.9%, NaCl) Compositions:
Subcutaneous solid tumor measurements were performed on the day of first injection and at 3- to 4-day intervals thereafter. The two largest perpendicular diameters of each tumor were measured with calipers and tumor sizes were estimated using the formula: TV=L×W/2 where TV: tumor volume; L: length; W: width. The body weights of animals were also noted.
The experiment was performed as described in example 27, using the following compositions for treatment:
non-formulated bendamustine, (30 mg/kg)
Bendamustine (30 mg/kg) in 40% SBECD (formulated BM)
The treatment was performed on days 1, 2, 9, and 10.

Data set [3] can be described thus: Bendamustine chemical stability in plasma, HPLC (Example 31). The note with it: heparinized human plasma, 37° C., initially 0.015 mg/mL bendamustine; read-out: T½ in plasma (decomposition half time). The class given is in vitro ADME. Here is the method: Heparinized human plasma was spiked, 20 μL into 780 μL of plasma, with the following bendamustine (BM) compositions:
The concentration of bendamustine in plasma after spiking was initially 0.015 mg/mL. The spiked plasma samples were incubated at 37° C. A sample of 50 μL was periodically withdrawn from spiked plasma, and transferred into 200 μL of 100 mM HCl solution in acetonitrile, mixed and centrifuged. 50 μL of the supernatant was diluted 20 times with 95% acetonitrile, then 20 μL of diluted samples were separated on Waters SymmetryShield RP18 3.5 μm column (4.6×50 mm) using gradient of acetonitrile (0.1% TFA) in water (0.1% TFA), flow 1.5 mL/min. Peak detection was performed by means of fluorescence detection with […] at 327 nm and emission at 420 nm. The area of the peak of Bendamustine was used to evaluate the rate of drug decomposition in the first order kinetics model.

With `Cn1c(CCCC(=O)O)nc2cc(N(CCCl)CCCl)ccc21` [BM, 4-[5-[bis(2-chloroethyl)amino]-1-methylbenzimidazol-2-yl]butanoic acid], in data set [1] (female, Sprague-Dawley, rat, plasma, iv, 1 h post injection, read-out: Concentration of bendamustine in rat plasma, Mean (SEM)), the concentration at 1 h was 47 ng/mL. In addition, the concentration at 3 h in data set [1] (female, Sprague-Dawley, rat, plasma, iv, 3 h post injection, read-out: Concentration of bendamustine in rat plasma, Mean (SEM)) is 0 ng/mL. Also, the “Concentration of bendamustine in rat plasma, Mean (SEM)” value is 6045 (388) ng/mL in data set [1] (0.08 h post injection); 2428 (250) ng/mL in data set [1] (0.25 h post injection); 520 (105) ng/mL in data set [1] (0.5 h post injection); 145 (35) ng/mL in data set [1] (0.75 h post injection); 8 (1) ng/mL in data set [1] (1.5 h post injection); 2 (1) ng/mL in data set [1] (2 h post injection). Besides, the “Tumor weight after treatment, Average (SEM)” value in data set [2] (day 0) is on record as 0.203 (0.028) g; in data set [2] (day 2), 0.238 (0.023) g; in data set [2] (day 5), 0.267 (0.022) g; in data set [2] (day 7), 0.313 (0.028) g; in data set [2] (day 9) it was 0.388 (0.045) g; in data set [2] (day 12) it was 0.497 (0.060) g. Besides, the figures for the “Tumor weight after treatment, Average (SEM)” value in data set [2] (day 14), in data set [2] (day 16) and in data set [2] (day 19) were 0.550 (0.075) g, 0.594 (0.084) g and 0.684 (0.098) g, respectively. Besides, the “Real Tumor weight on day 19 in autopsy” value in data set [2] (30 mg/kg, Day 1, 2, 9, 10) was found to be 0.275 ± 0.052 g. Also, in data set [2] (30 mg/kg, Day 1, 2, 9, 10), the “Tumor weight on day 19 estimated from measurements of the tumor size” value was 0.684 ± 0.10 g. Besides, in data set [3], the half-life at 0.015 mg/mL was 2.05 h.
